According to EP0943615A1, “1,4-DIHYDROPYRIDINE DERIVATIVES” (Nikken Chemicals Company, Limited, priority 1996, dated 1998):

These compounds were tested on VJ-300 cells (assay: In vitro test of action suppressing proliferation of cancer cells, combined administration of doxorubicin (colony formation), resistant cells). Conditions: ADM alone or ADM + test compound 1 µg/ml, LD50 of ADM relative to ADM alone in KB cells = 1, 7 days incubation, colony count.
Assay type: cell-based, Human
Description: Human rhinopharynx cancer derived KB cells (i.e., sensitive cells) and their multi-drug resistant clone VJ-300 cells (i.e., resistant cells) were used as the test cells. As the incubation solutions, use was made of 10% fetal calf serum (Flow Laboratories) and Eagle MEM medium (Nissui Seiyaku) containing 0.292 mg/ml of L-glutamine (Flow Laboratories). The tests of the action for overcoming resistance to anti-cancer drugs or action for increasing the effect of the anti-cancer drug with the combined administration of the anti-cancer drug doxorubicin (i.e., adriamycin, ADM) and the test compound were performed as follows:
The test cells were suspended in incubation solutions and adjusted to a cell density of about 200 cells/ml. The cell suspensions were injected in 2 ml amounts into petri dishes and were incubated in a CO2 gas incubator (5% CO2, 95% air) at 37°C for 24 hours. Then, 5 µl of a predetermined concentration of the aqueous ADM solution and a predetermined concentration of a DMSO solution of the test compound were added, then the incubation was continued for a further 7 days. After the end of the incubation, the result was immobilized with methanol, Giemsa stained and measured for the number of colonies per dish. The results were used to prepare a volume-reaction curve. […] The results are shown in Table 8 to Table 10 using the concentration of LD50 of ADM in the ADM alone group by KB cells as the resistance degree 1 and calculating the resistances of the following LD50 concentrations as relative ratios. […]

`CCCCC1C(C(=O)OCCCc2cccnc2)=C(C)NC(c2ccc(-n3c(C)nc4cnccc43)cc2)=C1C(=O)OCC` (centres unmarked) [Compound 6, 4-butyl-6-methyl-2-[4-(2-methylimidazo[4,5-c]pyridin-1-yl)phenyl]-1,4-dihydropyridin-3,5-dicarboxylate 3-ethylester, 5-[3-(3-pyridyl)propyl]ester] and `CCCCCC1C(C(=O)OCCCc2cccnc2)=C(C)NC(c2ccc(-n3c(C)nc4cnccc43)cc2)=C1C(=O)OCC` (centres unmarked) [Compound 7, 6-methyl-2-[4-(2-methylimidazo[4,5-c]pyridin-1-yl)phenyl]-4-pentyl-1,4-dihydropyridin-3,5-dicarboxylate 3-ethylester, -5-[3-(3-pyridyl)propyl]ester] are the same in “Degree of resistance for ADM VJ-300” value: 2.8 for the first, 2.8 for the second.

First: CCOC(=O)C1=C(c2ccc(-n3c(C)nc4cnccc43)cc2)NC(C)=C(C(=O)OC/C=C/c2cccnc2)C1CCC1CCCCC1 (centres unmarked) [Compound 28, 4-(2-cyclohexylethyl)-6-methyl-2-[4-(2-methylimidazo[4,5-c]pyridin-1-yl)phenyl]-1,4-dihydropyridin-3,5-dicarboxylate 3-ethylester, 5-[(E)-3-(3-pyridyl)-2-propenyl]ester]
Second: CCCCCC1C(C(=O)OCC=Cc2cccnc2)=C(C)NC(c2ccc(-n3c(C)nc4ncccc43)cc2)=C1C(=O)OCC (centres unmarked) [Compound 4, 6-methyl-2-[4-(2-methylimidazo[4,5-b]pyridin-1-yl)phenyl]-4-pentyl-1,4-dihydropyridin-3,5-dicarboxylate 3-ethylester, 5-[3-(3-pyridyl)-2-propenyl]ester]
The “Degree of resistance for ADM VJ-300” value of the first is higher: 1.7 for the first, 1.2 for the second.

Compared with `CCOC(=O)C1=C(c2ccc(-n3c(C)nc4cnccc43)cc2)NC(C)=C(C(=O)OCCCC(=O)c2cccnc2)C1C=C1CCCCC1` (centres unmarked) [Compound 46, 4-cyclohexylidenemethyl-6-methyl-2-[4-(2-methylimidazo[4,5-c]pyridin-1-yl)phenyl]-1,4-dihydropyridin-3,5-dicarboxylate 3-ethylester 5-(3-nicotinoylpropyl)ester], `CCOC(=O)C1=C(c2ccc(-n3c(C)nc4cnccc43)cc2)NC(C)=C(C(=O)OCCCc2cccnc2)C1CCc1ccccc1` (centres unmarked) [Compound 13, 6-methyl-2-[4-(2-methylimidazo[4,5-c]pyridin-1-yl)phenyl]-4-(2-phenylethyl)-1,4-dihydropyridin-3,5-dicarboxylate 3-ethylester, 5-[3-(3-pyridyl)propyl]ester] is higher in “Degree of resistance for ADM VJ-300” value: 2.5 for the first, 2.6 for the second.

Compared with `COC(=O)C1=C(c2ccc(-n3ccnc3)cc2)NC(C)=C(C(=O)OC/C=C/c2cccnc2)C1C1CCCCC1` (centres unmarked) [Compound 38, 4-cyclohexyl-2-[4-(1-imidazolyl)phenyl]-6-methyl-1,4-dihydropyridin-3,5-dicarboxylate 3-methylester, 5-[(E)-3-(3-pyridyl)-2-propenyl]ester], `CCCCCC1C(C(=O)OCCCN2CCN(C(c3ccccc3)c3ccccc3)CC2)=C(C)NC(c2ccc(-n3c(C)nc4ncccc43)cc2)=C1C(=O)OCC` (centres unmarked) [Compound 5, 6-methyl-2-[4-(2-methylimidazo[4,5-b]pyridin-1-yl)phenyl]-4-pentyl-1,4-dihydropyridin-3,5-dicarboxylate 3-ethylester, 5-[3-(4-benzhydrylpiperadin-1-yl)propyl]ester] is higher in “Degree of resistance for ADM VJ-300” value: 2.4 for the first, 4.6 for the second.
